Results published in paper PMC2151574 (The Journal of General Physiology, 2006).
“And” between values parts separate entries of the source, which are not always exact repeats. Equal entries are not always repeated. “Also recorded” adds a separate entry of the source. Where two headings read alike, the source gives them in different places. Where a SMILES comes first, the peptide text is derived from it.

How the values were obtained:
[1] = target: T1, E321N, E324N mutant BK channel (Mus musculus, UniProt Q08460, E386N/E389N); assay: Single channel recordings, E321N, E324N mutant; assay type: cell-based
T1 sequence (Q08460 66-1209 E386N/E389N limits assumed): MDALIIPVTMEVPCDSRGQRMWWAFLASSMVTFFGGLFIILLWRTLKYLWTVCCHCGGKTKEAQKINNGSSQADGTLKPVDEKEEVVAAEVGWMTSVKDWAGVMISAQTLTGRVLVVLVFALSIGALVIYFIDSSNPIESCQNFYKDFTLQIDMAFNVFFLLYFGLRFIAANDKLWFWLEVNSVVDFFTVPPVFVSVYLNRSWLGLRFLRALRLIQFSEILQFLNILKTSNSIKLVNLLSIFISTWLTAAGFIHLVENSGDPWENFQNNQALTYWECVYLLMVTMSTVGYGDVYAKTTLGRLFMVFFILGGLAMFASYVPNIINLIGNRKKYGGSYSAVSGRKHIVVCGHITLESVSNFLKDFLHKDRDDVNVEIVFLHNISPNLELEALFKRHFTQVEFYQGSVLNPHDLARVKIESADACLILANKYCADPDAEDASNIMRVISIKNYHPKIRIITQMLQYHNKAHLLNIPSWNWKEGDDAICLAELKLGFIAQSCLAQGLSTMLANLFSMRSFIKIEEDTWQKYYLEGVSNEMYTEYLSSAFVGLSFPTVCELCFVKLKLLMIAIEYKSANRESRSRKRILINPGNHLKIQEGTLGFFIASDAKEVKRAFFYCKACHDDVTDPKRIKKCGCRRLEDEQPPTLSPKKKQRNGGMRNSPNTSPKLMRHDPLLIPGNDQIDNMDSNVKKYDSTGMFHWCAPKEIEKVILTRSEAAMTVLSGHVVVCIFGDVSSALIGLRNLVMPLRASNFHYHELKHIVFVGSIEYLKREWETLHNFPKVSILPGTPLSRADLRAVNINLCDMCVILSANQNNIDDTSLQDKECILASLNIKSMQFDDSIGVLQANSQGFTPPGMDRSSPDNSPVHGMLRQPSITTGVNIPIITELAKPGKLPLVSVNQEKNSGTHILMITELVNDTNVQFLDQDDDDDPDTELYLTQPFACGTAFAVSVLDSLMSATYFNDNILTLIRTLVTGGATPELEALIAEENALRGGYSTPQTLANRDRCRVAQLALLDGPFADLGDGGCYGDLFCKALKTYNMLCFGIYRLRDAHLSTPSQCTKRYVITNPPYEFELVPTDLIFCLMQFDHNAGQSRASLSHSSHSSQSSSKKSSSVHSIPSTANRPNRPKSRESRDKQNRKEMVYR

[2] = test system: S6/2-KcsA BK channel construct; assay type: cell-based, mouse
[3] = test system: BK channels; details: cited from earlier work; for time dependence of block of BK currents: internal
[4] = target: wild-type BK channel (mslo, mbr5) (Mus musculus, UniProt Q08460); assay: Macroscopic block of wild-type BK currents, inside-out patch clamp; assay type: cell-based; details: for time constant of block, τfast (double exponential fit) / time constant of block, τslow (double exponential fit): inside-out patch, 22°C, holding potential −80 mV
Sequence of wild-type BK channel (mslo, mbr5) (Q08460 66-1209 limits assumed): as the sequence (Q08460 66-1209 E386N/E389N limits assumed) above, with N321E, N324E counted along it

[5] = target: T2, wild-type BK channel (mslo) (Mus musculus, UniProt Q08460); assay: Single channel recordings, wild-type BK channel; assay type: cell-based; details: n = 5
T2 sequence (Q08460 66-1209 limits assumed): as the sequence (Q08460 66-1209 E386N/E389N limits assumed) above, with N321E, N324E counted along it

[6] = target: T1, E321N, E324N mutant BK channel; assay type: cell-based; details: for decrease of apparent affinity of block in E321N, E324N mutant vs wild type: macroscopic currents
[7] = target: S6/2-KcsA BK channel construct (Mus musculus, UniProt Q08460, A378T/A381G/E386A/E389T/I387L/I388A/I391F/L377I/L390W/M379S/P385A/S382L/V384T/Y383V); assay type: cell-based
Sequence of S6/2-KcsA BK channel construct (Mus musculus, UniProt Q08460, A378T/A381G/E386A/E389T/I387L/I388A/I391F/L377I/L390W/M379S/P385A/S382L/V384T/Y383V) (Q08460 28-1196 isoform Q08460-2 with the stated changes): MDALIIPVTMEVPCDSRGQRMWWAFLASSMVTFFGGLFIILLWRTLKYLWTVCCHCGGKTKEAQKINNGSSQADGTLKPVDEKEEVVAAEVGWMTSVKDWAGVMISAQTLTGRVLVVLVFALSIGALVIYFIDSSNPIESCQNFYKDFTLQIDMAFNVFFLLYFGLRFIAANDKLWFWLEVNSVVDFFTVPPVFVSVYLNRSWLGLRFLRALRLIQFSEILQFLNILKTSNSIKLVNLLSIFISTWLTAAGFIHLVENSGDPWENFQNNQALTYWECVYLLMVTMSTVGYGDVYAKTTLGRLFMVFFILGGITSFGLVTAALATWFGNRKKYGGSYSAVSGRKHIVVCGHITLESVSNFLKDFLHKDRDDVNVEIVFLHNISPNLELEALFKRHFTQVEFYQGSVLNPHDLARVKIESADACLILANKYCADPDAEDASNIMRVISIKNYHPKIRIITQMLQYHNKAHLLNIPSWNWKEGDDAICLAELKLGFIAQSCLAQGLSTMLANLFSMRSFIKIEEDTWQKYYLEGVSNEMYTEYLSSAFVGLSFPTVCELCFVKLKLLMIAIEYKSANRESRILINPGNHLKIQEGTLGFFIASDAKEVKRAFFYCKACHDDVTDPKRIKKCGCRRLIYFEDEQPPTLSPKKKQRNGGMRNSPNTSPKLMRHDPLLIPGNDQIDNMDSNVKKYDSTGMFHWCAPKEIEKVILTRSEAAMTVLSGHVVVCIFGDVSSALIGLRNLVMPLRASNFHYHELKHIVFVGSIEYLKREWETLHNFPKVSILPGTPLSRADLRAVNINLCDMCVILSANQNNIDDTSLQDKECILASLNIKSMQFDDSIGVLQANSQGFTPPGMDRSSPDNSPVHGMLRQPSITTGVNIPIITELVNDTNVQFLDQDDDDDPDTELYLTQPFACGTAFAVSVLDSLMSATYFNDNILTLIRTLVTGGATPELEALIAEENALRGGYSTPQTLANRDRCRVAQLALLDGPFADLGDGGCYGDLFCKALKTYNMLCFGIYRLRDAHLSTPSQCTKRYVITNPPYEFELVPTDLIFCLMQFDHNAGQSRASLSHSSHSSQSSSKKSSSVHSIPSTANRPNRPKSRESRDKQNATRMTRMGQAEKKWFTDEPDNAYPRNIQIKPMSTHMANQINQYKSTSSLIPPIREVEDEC

[8] = target: T2, wild-type BK channel (mslo); assay: State dependence of EBP block in High and Low Ca2+; assay type: cell-based; details: 3 μM EBP
[9] = target: T2, wild-type BK channel (mslo); assay: Deactivation; assay type: cell-based
[10] = target: T2, wild-type BK channel (mslo); assay: Competition between TBA and EBP on macroscopic BK currents; assay type: cell-based
[11] = test system: Shaker channels; details: ref Murrell-Lagnado and Aldrich, 1993b; cited from earlier work
[12] = test system: BK channels; details: cited from earlier work
[13] = test system: Shaker channel (ShB Δ6-46); assay: Macroscopic block of Shaker currents, inside-out patch clamp; assay type: cell-based; details: identical conditions, holding potential −120 mV
[14] = test system: other K^+ channels and CNG channels; details: most other K^+ channels; cited from earlier work
[15] = EBP at around half block concentration, 120 mV
[16] = 500 μM TBA on top of 3 μM EBP, compared with 3 μM EBP alone
[17] = when roughly half of the channels are blocked

## CCCCCCCCCC[N+](CC)(CC)CC [C10, Decyltriethylammonium]
[1]; E321N, E324N mutant, 40 μM C10, mean ± SD, n = 5
  association rate: 12.5 ± 1.1 ms^−1
[1]; E321N, E324N mutant, 120 mV, mean ± SD, n = 5
  dissociation rate of block (mean shut dwell time): 7.8 ± 0.6 ms^−1
[2]; 1 mM C10
  block events in single S6/2-KcsA channels: too fast to resolve
[3]; ref Li and Aldrich, 2004
  time dependence of block of BK currents: without apparent time dependence
[4]; wild type, 100 mV, six patches
  Hill coefficient n (C10): 0.97
[4]; wild-type BK channels
  affinity of C10 relative to that of TBA: ~30 times
[5]; 15 μM C10, mean ± SD
  association rate: 9.0 ± 1.6 ms^−1
[5]; 120 mV, mean ± SD
  dissociation rate of block (mean shut dwell time): 6.4 ± 0.5 ms^−1
[6]; E321N, E324N mutant, 100 mV, eight patches
  Hill coefficient n (C10): 1.01
[6]
  decrease of apparent affinity of block in E321N, E324N mutant vs wild type: ~2.5 fold
[7]
  affinity of C10 vs TBA, S6/2-KcsA: lower affinity than TBA
  decrease of apparent affinity of C10 in S6/2-KcsA vs wild type: almost two orders of magnitude
[7]; 1 mM C10
  block of macroscopic S6/2-KcsA currents by C10: about half the macroscopic currents
[7]; S6/2-KcsA, 100 mV, five patches
  Hill coefficient n (C10): 0.95

## CSCC[C@H](NC(C)=O)C(=O)N[C@@H](C)C(=O)N[C@@H](C)C(=O)N[C@H](C(=O)N[C@@H](C)C(=O)NCC(=O)N[C@@H](CC(C)C)C(=O)N[C@@H](Cc1ccc(O)cc1)C(=O)NCC(=O)N[C@@H](CC(C)C)C(=O)NCC(=O)N[C@@H](CCCCN)C(=O)N[C@@H](CCCCN)C(=O)N[C@@H](CCCNC(=N)N)C(=O)N[C@@H](CCC(N)=O)C(=O)N[C@@H](Cc1c[nH]cn1)C(=O)N[C@@H](CCCNC(=N)N)C(=O)N[C@@H](CCCCN)C(=O)N[C@@H](CCCCN)C(=O)N[C@@H](CCC(N)=O)C(N)=O)C(C)C [EBP] (Ac-MAAVAGLYGLGKKRQHRKKQ-NH2)
[8]; High Ca^2+, lower end of range −80 to 80 mV
  fraction of preblock, Po ∼0: ~0
[8]; Low Ca^2+, −80 to 80 mV, Po ∼0
  relative amplitude of the test current, change with prepulse: doesn't change much
[8]; High and Low Ca^2+ solutions
  state dependence of block: much more favored in an open configuration than a closed one; also recorded: peptide binding is much more favored in an opened BK channel
[1]; 100 μM EBP, 80 mV
  duration of block events, single E321N, E324N channel: mainly short block events lasting a few milliseconds
[9]; 3 μM EBP, tail current compared with control
  deactivation of BK channels: slowed compared with the control trace; also recorded: Deactivation of BK channels is slowed by EBP
[9]; 3 μM EBP, −160 mV after depolarization to 120 mV
  normalized tail current time constant, τslow (double exponential fit): 7.3 ms
[9]; 3 μM EBP, −160 mV after depolarization to 120 mV (control τ = 0.25 ms)
  normalized tail current time constant, τfast (double exponential fit): 0.37 ms
[9]; EBP, negative potentials, relatively voltage insensitive
  tail current time constant, slower component: ~10 ms
[9]; EBP, −60 mV
  tail current time constant, fast component: ~2 ms
[9]; EBP, −160 mV
  tail current time constant, fast component: ~0.3 ms
[9]; from modeling tail currents with a C↔O↔B model
  off rate at negative potentials: ~100 s⁻¹
[2]; 100 μM EBP, 120 mV
  block events in single S6/2-KcsA channels: fails to result in resolvable block events
[2]; 100 μM each
  dissociation rate of EBP in S6/2-KcsA channels vs TBA: even faster than that of TBA
[10]; 3 μM EBP alone
  time constant of block, τ: 2.8 ms
[10]; 3 μM EBP plus 500 μM TBA
  time constant of block, τ: 5.6 ms
[10]; 3 μM EBP, 500 μM TBA, positive potentials
  competition of TBA and EBP binding: mutually exclusive
[4]; 1 μM EBP, 120 mV
  rising phase of BK currents (activation) vs control: largely unchanged compared with control
[4]; 1 μM EBP, 120 mV, macroscopic
  time constant of block, τ (single exponential fit): 17.6 ms
[4]; 1 μM EBP, end of 60-ms pulses, n = 6
  fraction of remaining current (I/Io), voltage dependence: decreases with increased membrane potentials
[4]; 3 μM EBP
  block of wild-type BK currents: nearly complete block
  single channel openings at steady-state block: single channel openings to the full current level are clearly evident
[4]; 3 μM EBP, 120 mV, macroscopic
  time constant of block, τ (single exponential fit): 4.5 ms
[4]; 10 μM EBP, 120 mV, macroscopic
  time constant of block, τ (single exponential fit): 1.1 ms
[4]; 1, 3 and 10 μM EBP, positive voltages (≥40 mV), n = 6
  1/τ of block, concentration dependence: linearly dependent on the concentration of EBP
[4]; low concentration of EBP blocking roughly half of the channels (unpublished data)
  time constant of the single exponential decay: ~100 ms
[4]; slope of 1/τ vs EBP concentration
  association rate constant (Kon), voltage dependence: larger depolarizations resulting in higher association rate constants
[4]; wild type, 120 mV, 500 ms pulses, 5 patches
  Hill coefficient n (EBP): 1.16
[11]
  affinity for Shaker channels vs native ShBP: much higher affinity for Shaker channels
  association rate for Shaker channels vs native ShBP: significantly higher association rate for Shaker channels than native ShBP
[12]; near 0 mV, ref Toro et al., 1994
  type of block events, single BK channels: mostly short block events; also recorded: predominantly short block events
[12]; single channel, ref Toro et al., 1994
  affinity for BK channels: higher affinity for BK channels than ShBP
[6]; 100 μM EBP, 120 mV
  block of E321N, E324N currents by EBP: < 60%
[6]; 120 mV, from fitted dose responses
  decrease of apparent affinity of EBP block in double mutant vs wild type: more than two orders of magnitude
[6]; E321N, E324N mutant, 120 mV, 11 patches
  Hill coefficient n (EBP): 0.72
[6]; [15]
  time constant of dominating component of block: a few milliseconds
  time constant of very small component of block: hundreds of milliseconds
[7]; 100 μM EBP, 120 mV, mean ± SD, n = 5
  block of S6/2-KcsA current by EBP: 23.0 ± 0.5% and ~20%
[7]; 120 mV
  apparent affinity of EBP for S6/2-KcsA vs E321N, E324N double mutant: about threefold lower
  apparent affinity of EBP for S6/2-KcsA vs wild-type BK: more than three orders of magnitude lower

## CCCC[N+](CCCC)(CCCC)CCCC [TBA, Tetrabutylammonium]
[1]; 1 mM TBA in E321N, E324N mutant vs 0.4 mM in wild type, 120 mV
  single channel block in mutant vs wild type: qualitatively very similar
[2]; 0.4 mM TBA
  block of single S6/2-KcsA channels vs wild-type BK: kinetically very similar
[10]; [16]
  reduction of peak current by added TBA: about half
  slowing of time-dependent EBP block by added TBA: about twofold
[3]; 500 μM TBA, positive potentials, ref Li and Aldrich, 2004
  inhibition of BK current at steady state: ~50%
[3]; internal TBA, "our previous study", ref Li and Aldrich, 2004
  block of BK channels: fast block of BK channels at submillimolar concentrations
[3]; ref Li and Aldrich, 2004
  time dependence of block of BK currents: without apparent time dependence
[4]; wild type, 120 mV, five patches
  Hill coefficient n (TBA): 0.87
[6]; 20 mM TBA, E321N, E324N mutant
  block of mutant currents by TBA: ~100%
[6]; E321N, E324N mutant, 120 mV, nine patches
  Hill coefficient n (TBA): 0.89
[6]
  decrease of apparent affinity of block in E321N, E324N mutant vs wild type: ~2.5 fold
[7]
  affinity of TBA in S6/2-KcsA vs wild-type BK: almost exactly the same affinity
[7]; 100 μM TBA, 120 mV
  block of macroscopic S6/2-KcsA currents by TBA: ~20%
[7]; 20 mM TBA, S6/2-KcsA
  block of mutant currents by TBA: ~100%
[7]; S6/2-KcsA, 120 mV, five patches
  Hill coefficient n (TBA): 0.97
[7]; voltage ramp −80 to 200 mV, 0.3 and 10 mM TBA
  sensitivity of S6/2-KcsA channels to TBA: sensitive to millimolar concentrations of TBA

## CCCC[N+](CCCC)(CCCC)Cc1ccc(C(=O)c2ccccc2)cc1 [bbTBA]
[3]; ref Wilkens and Aldrich, 2006
  access of blocker to BK channels: may not be restricted by a cytoplasmic gate

## MAAVAGLYGLGEDRQHRKKQ [ShBP]
[4]; 30 μM ShBP, macroscopic
  time constant of block, τfast (double exponential fit): 2.0 ms
  time constant of block, τslow (double exponential fit): 13.1 ms
[4]; 100 μM ShBP, 120 mV
  block of wild-type BK currents by ShBP: ~70%
[4]; 100 μM ShBP, macroscopic
  time constant of block, τfast (double exponential fit): 0.7 ms
  time constant of block, τslow (double exponential fit): 5.2 ms
[4]; native ShBP
  type of block events in BK channels: mainly short block events
[4]; when about half of the currents are blocked, macroscopic
  character of block events: the majority of the block events are short lived
[4]; [17]
  time constant of block, faster of two components: ~2 ms
  time constant of block, slower of two components: ~10 ms
[13]
  block of Shaker compared with BK currents: slower block and higher apparent affinity
[11]
  dissociation rate, Shaker channels: ~10 s⁻¹
[14]
  type of block events in other K+ channels: only long block events
[12]; dominating, ref Foster et al., 1992, Toro et al., 1992, 1994
  lifetime of short block events, single BK channels: a few milliseconds
[12]; rare, ref Foster et al., 1992, Toro et al., 1992, 1994
  lifetime of long block events, single BK channels: hundreds of milliseconds
[12]; ref Foster et al., 1992, Toro et al.
  dissociation rate for the short block of BK channels: ~100 s⁻¹
[6]; 100 μM ShBP, 120 mV (unpublished data), roughly estimated
  block of E321N, E324N currents by ShBP: ~20%
[6]; 120 mV
  decrease in apparent affinity of ShBP by the double mutation: ~10 fold
